Like-named read-outs stand apart in the source and are kept apart here.
Tests used:
CDK8 [1] = biological target: T1, CDK8 (Homo sapiens (Human), UniProt P49336); experiment: LanthaScreen Eu Kinase Binding Assay (competitive kinase binding assay); conditions: displacing the Tracer from the target kinase, read-out: Enzyme IC50
Description: The biological activities of the compounds of the present application can be assessed through a variety of methods known in the art. For example, a kinase competitive binding assay may be used to determine the activity of the compounds of the present application to bind to […]. […] The changes in the signal produced by the reporting ligand when the compound is present relative when the compound is absent are recorded, which are calculated to provide the IC50 of the compound. Compounds of the present application were tested in a competitive kinase binding assay by using commercially available assay system. For example, LanthaScreen® Eu Kinase Binding Assay (Invitrogen™) was used to measure the IC50 of the compounds of the present application in displacing the Tracer from binding to the target kinase, by following the assay protocol from Invitrogen™.
Target sequence in this assay (P49336 whole entry, looked up): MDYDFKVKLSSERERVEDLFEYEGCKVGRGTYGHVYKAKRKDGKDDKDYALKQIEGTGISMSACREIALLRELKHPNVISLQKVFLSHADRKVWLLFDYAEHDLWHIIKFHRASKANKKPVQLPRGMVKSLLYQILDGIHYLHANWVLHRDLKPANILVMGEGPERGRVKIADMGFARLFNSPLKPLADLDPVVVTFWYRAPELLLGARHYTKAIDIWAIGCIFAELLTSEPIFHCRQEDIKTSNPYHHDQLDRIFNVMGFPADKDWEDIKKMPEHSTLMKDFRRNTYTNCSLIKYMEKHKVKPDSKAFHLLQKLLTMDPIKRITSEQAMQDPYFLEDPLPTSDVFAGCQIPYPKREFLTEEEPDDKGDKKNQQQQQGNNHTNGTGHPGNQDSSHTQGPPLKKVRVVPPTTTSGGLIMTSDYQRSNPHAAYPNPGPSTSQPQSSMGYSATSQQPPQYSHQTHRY
Target sequence in this assay (P24863 whole entry partner, looked up): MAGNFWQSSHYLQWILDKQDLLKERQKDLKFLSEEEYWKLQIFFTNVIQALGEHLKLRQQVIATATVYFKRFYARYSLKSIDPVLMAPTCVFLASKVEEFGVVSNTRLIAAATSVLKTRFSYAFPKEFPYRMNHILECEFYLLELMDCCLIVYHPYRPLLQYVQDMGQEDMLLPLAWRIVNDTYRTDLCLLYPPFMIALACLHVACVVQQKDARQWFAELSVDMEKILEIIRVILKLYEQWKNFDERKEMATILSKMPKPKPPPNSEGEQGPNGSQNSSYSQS

[2] = system: pS727-STAT1 (CDK8 substrate) in HepG2 cells; experiment: Western blot of S727-STAT1 phosphorylation in IFNγ-treated HepG2 cells; assay type: cell-based; conditions: 18 h with IFNγ, Compound 33 at 0.5, 1, 5 μM, DCA at 0.1, 1 μM
Description: FIG. 4 is a western blot illustrating inhibition of phosphorylation of S727-STAT1, a known CDK8 substrate, to form pS727-STAT1. pS727-STAT1 and total STAT1 were from HepG2 cells independently treated for 18 h with interferon gamma (IFNγ) and 0.5 μM, 1 μM, or 5 μM Compound 33, or with IFNγ and 0.1 μM or 1 μM dehydrocortistatin A (“DCA”).

CDK8 [3] = biological target: T1, CDK8; conditions: cited from earlier work
Target sequence in this assay (P49336 whole entry, looked up, species assumed): as the sequence (P49336 whole entry, looked up) above
Target sequence in this assay (P24863 whole entry partner, looked up, species assumed): as the sequence (P24863 whole entry partner, looked up) above

SMILES	IC50 (CDK8 [1]; Targeting Ligands of Table 1) [nM]	also measured
CN(C)[C@H]1CC[C@@]2(C)C(=CCC3[C@@H]4CC[C@H](c5ccc6ccncc6c5)[C@@]4(C)CC[C@@H]32)C1 (stereo in doubt) [Compound 33, (3S,8R,9S,10R,13S,14S)-17-(isoquinolin-7-yl)-N,N,10,13-tetramethyl-2,3,4,7,8,9,10,11,12,13,14,15,16,17-tetradecahydro-1H-cyclopenta[a]phenanthren-3-amine]	< 100	inhibition of S727 phosphorylation (pS727-STAT1 vs total STAT1, western blot) [2]: dose-dependent inhibition
C[C@]12CC[C@H](O)CC1=CC[C@@H]1[C@@H]2CC[C@]2(C)C(c3ccc4ccncc4c3)=CC[C@@H]12 [Compound 1, (3S,8R,9S,10R,13S,14S)-17-(isoquinolin-7-yl)-10,13-dimethyl-2,3,4,7,8,9,10,11,12,13,14,15-dodecahydro-1H-cyclopenta[a]phenanthren-3-ol]	101 to 200	
C[C@]12CC[C@H](O)C[C@@H]1CC[C@@H]1[C@@H]2CC[C@]2(C)C(c3ccc4ccncc4c3)=CC[C@@H]12 [Compound 2]	701 to 2000	
C[C@]12CC[C@H](O)CC1=CC[C@@H]1[C@@H]2CC[C@]2(C)C(c3ccc4cnncc4c3)=CC[C@@H]12 [Compound 3]	> 6000	
C[C@]12CC[C@H](O)CC1=CC[C@@H]1[C@@H]2CC[C@]2(C)C(c3ccc4nc(N)ncc4c3)=CC[C@@H]12 [Compound 4]	2000 to 6000	
C[C@]12CC[C@H](O)CC1=CC[C@@H]1[C@@H]2CC[C@]2(C)C(c3ccc4[nH]ncc4c3)=CC[C@@H]12 [Compound 6]	> 6000	
C[C@]12CC[C@H](O)CC1=CC[C@@H]1[C@@H]2CC[C@]2(C)C(c3ccc4cn[nH]c4c3)=CC[C@@H]12 [Compound 7]	> 6000	
C[C@]12CC[C@H]3[C@@H](CC=C4C[C@@H](O)CC[C@@]43C)[C@@H]1CC[C@@H]2c1ccc2ccncc2c1 [Compound 8a, (3S,8S,9S,10R,13S,14S,17S)-17-(isoquinolin-7-yl)-10,13-dimethyl-2,3,4,7,8,9,10,11,12,13,14,15,16,17-tetradecahydro-1H-cyclopenta[a]phenanthren-3-ol]	< 100	
C[C@]12CC[C@H](O)C[C@@H]1CC[C@@H]1[C@@H]2CC[C@]2(C)[C@@H](c3ccc4ccncc4c3)CC[C@@H]12 [Compound 8b]	201 to 300	
C[C@]12CC[C@H]3[C@@H](CC=C4C[C@@H](O)CC[C@@]43C)[C@@H]1CC[C@@H]2c1ccc2cnncc2c1 [Compound 9]	> 6000	
C[C@]12CC[C@H]3[C@@H](CC=C4C[C@@H](O)CC[C@@]43C)[C@@H]1CC[C@@H]2c1ccc2nc(N)ncc2c1 [Compound 10]	101 to 200	
C[C@]12CC[C@H]3[C@@H](CC=C4C[C@@H](O)CC[C@@]43C)[C@@H]1CC[C@@H]2c1ccc2c(N)n[nH]c2c1 [Compound 11]	301 to 700	
C[C@]12CC[C@H]3[C@@H](CC=C4C[C@@H](O)CC[C@@]43C)[C@@H]1CC[C@@H]2c1ccc2[nH]ncc2c1 [Compound 12]	> 6000	
C[C@]12CC[C@H]3[C@@H](CC=C4C[C@@H](O)CC[C@@]43C)[C@@H]1CC[C@@H]2c1ccc2cn[nH]c2c1 [Compound 13]	> 6000	
C[C@]12CC[C@H]3[C@@H](CC=C4C[C@@H](O)CC[C@@]43C)[C@@H]1CC[C@@H]2c1ccc2cnccc2c1 [Compound 14]	2000 to 6000	
CN(C)[C@H]1CC[C@@]2(C)[C@@H](CC[C@@H]3[C@@H]2CC[C@]2(C)[C@@H](c4ccc5ccncc5c4)CC[C@@H]32)C1 [Compound 23, (3S,8R,9S,10S,13S,14S,17S)-(isoquinolin-7-yl)-N,N,10,13-tetramethylhexadecahydro-1H-cyclopenta[a]phenanthren-3-amine]	< 100	
CN(C)[C@@H]1CC[C@@]2(C)[C@@H](CC[C@@H]3[C@@H]2CC[C@]2(C)C(c4ccc5ccncc5c4)=CC[C@@H]32)C1 [Compound 24]	201 to 300	
CN(C)[C@@H]1CC[C@@]2(C)[C@@H](CC[C@@H]3[C@@H]2CC[C@]2(C)[C@@H](c4ccc5ccncc5c4)CC[C@@H]32)C1 [Compound 25]	< 100	
C[C@]12CC[C@H](n3ccnn3)C[C@@H]1CC[C@@H]1[C@@H]2CC[C@]2(C)[C@@H](c3ccc4ccncc4c3)CC[C@@H]12 [Compound 39, 7-((3S,8R,9S,10S,13S,14S,17S)-10,13-dimethyl-3-(1H-1,2,3-triazol-1-yl)hexadecahydro-1H-cyclopenta[a]phenanthren-17-yl)isoquinoline]	< 100	
CC(=O)N(C)[C@H]1CC[C@@]2(C)[C@@H](CC[C@@H]3[C@@H]2CC[C@]2(C)[C@@H](c4ccc5ccncc5c4)CC[C@@H]32)C1 [Compound 47, N-((3S,8R,10S,13S,14S,17S)-17-(isoquinolin-7-yl)-10,13-dimethylhexadecahydro-1H-cyclopenta[a]phenanthren-3-yl)-N-methylacetamide]	< 100	
CN(C(=O)CCOCCOCCOCCOCCNc1cccc2c1C(=O)N(C1CCC(=O)NC1=O)C2=O)[C@H]1CC[C@]2(C)C3CC[C@]4(C)[C@@H](c5ccc6ccncc6c5)CC[C@H]4C3CC[C@H]2C1 (stereo partly drawn) [Compound I-1, 1-((2-(2,6-dioxopiperidin-3-yl)-1,3-dioxoisoindolin-4-yl)amino)-N-((3S,5S,1&S,13S,14S,17S)-17-(isoquinolin-7-yl)-10,13-dimethylhexadecahydro-1H-cyclopenta[a]phenanthren-3-yl)-N-methyl-3,6,9,12-tetraoxapentadecan-15-amide]		IC50 (CDK8 [1]; bifunctional compounds): 101 to 200 nM
CN(C(=O)CCOCCOCCNc1cccc2c1C(=O)N(C1CCC(=O)NC1=O)C2=O)[C@H]1CC[C@]2(C)C3CC[C@]4(C)[C@@H](c5ccc6ccncc6c5)CC[C@H]4C3CC[C@H]2C1 (stereo partly drawn) [Compound I-2, 3-(2-(2-((2-(2,6-dioxopiperidin-3-yl)-1,3-dioxoisoindolin-4-yl)amino)ethoxy)ethoxy)-N-((3S,10S,17S)-17-(isoquinolin-7-yl)-10,13-dimethylhexadecahydro-1H-cyclopenta[a]phenanthren-3-yl)-N-methylpropanamide]		IC50 (CDK8 [1]; bifunctional compounds): 101 to 200 nM
CN(C(=O)CCOCCOCCNc1cccc2c1C(=O)N(C1CCC(=O)NC1=O)C2=O)[C@H]1CC[C@@]2(C)C(CCC3C4CC[C@H](c5ccc6ccncc6c5)C4(C)CCC32)C1 (stereo partly drawn) [Compound I-3, 3-(2-(2-((2-(2,6-dioxopiperidin-3-yl)-1,3-dioxoisoindolin-4-yl)amino)ethoxy)ethoxy)-N-((3S,10S,17S)-17-(isoquinolin-7-yl)-10,13-dimethylhexadecahydro-1H-cyclopenta[a]phenanthren-3-yl)-N-methylpropanamide]		IC50 (CDK8 [1]; bifunctional compounds): 201 to 300 nM
CN1C(=O)CCC(N2C(=O)c3cccc(NCCOCCOCCOCCOCCC(=O)N(C)[C@H]4CC[C@]5(C)C6CC[C@]7(C)[C@@H](c8ccc9ccncc9c8)CC[C@H]7C6CC[C@H]5C4)c3C2=O)C1=O (stereo partly drawn) [Compound I-5, N-((3S,5S,10S,13S,14S,17S)-17-(isoquinolin-7-yl)-10,13-dimethylhexadecahydro-1H-cyclopenta[a]phenanthren-3-yl)-N-methyl--((2-(1-methyl-2,6-dioxopiperidin-3-yl)-1,3-dioxoisoindolin-4-yl)amino)-3,6,9,12-tetraoxapentadecan-15-amide]		IC50 (CDK8 [1]; bifunctional compounds): 301 to 700 nM
CN(C)[C@H]1C[C@@]23CC[C@@]4(O2)C(=CC[C@]2(C)C(c5ccc6ccncc6c5)=CC[C@H]24)C=C3[C@@H](O)[C@@H]1O [DCA, dehydrocortistatin A, reference compound]		inhibition of S727 phosphorylation (pS727-STAT1 vs total STAT1, western blot) [2]: dose-dependent inhibition; IC50 (CDK8 [3]): 17 nM
